Common to all, as to experiment: relative viability (nuclei count vs DMSO), 5 days (fraction); higher = more cells survive
Compound in the assay “Avagacestat + Foretinib”: NC(=O)[C@@H](CCC(F)(F)F)N(Cc1ccc(-c2ncon2)cc1F)S(=O)(=O)c1ccc(Cl)cc1 [Avagacestat] + COc1cc2c(Oc3ccc(NC(=O)C4(C(=O)Nc5ccc(F)cc5)CC4)cc3F)ccnc2cc1OCCCN1CCOCC1 [Foretinib] (partner 0.25 µM)
In a few lines:
(§1)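 Relative viability is defined as nuclei in treated wells over nuclei in vehicle wells. Duplicate plates were run and medians reported. Lung cancer cell lines in 1536-well plates were dosed by pin tool one day after seeding, with one drug or with a fixed anchor-drug dose plus five library-drug doses (not always all listed) in √10 steps, and nuclei were counted after 5 days.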

Compound in the assay “Avagacestat + Alpelisib”: NC(=O)[C@@H](CCC(F)(F)F)N(Cc1ccc(-c2ncon2)cc1F)S(=O)(=O)c1ccc(Cl)cc1 [Avagacestat] + Cc1nc(NC(=O)N2CCC[C@H]2C(N)=O)sc1-c1ccnc(C(C)(C)C(F)(F)F)c1 [Alpelisib] (partner 2 µM)
The procedure, abridged:
as §1

Compound in the assay “Avagacestat + Pemetrexed”: NC(=O)[C@@H](CCC(F)(F)F)N(Cc1ccc(-c2ncon2)cc1F)S(=O)(=O)c1ccc(Cl)cc1 [Avagacestat] + Nc1nc2[nH]cc(CCc3ccc(C(=O)N[C@@H](CCC(=O)O)C(=O)O)cc3)c2c(=O)[nH]1 [Pemetrexed] (partner 0.2 µM)
The procedure, abridged: as §1

Compound in the assay “Avagacestat + Olaparib”: NC(=O)[C@@H](CCC(F)(F)F)N(Cc1ccc(-c2ncon2)cc1F)S(=O)(=O)c1ccc(Cl)cc1 [Avagacestat] + O=C(c1cc(Cc2n[nH]c(=O)c3ccccc23)ccc1F)N1CCN(C(=O)C2CC2)CC1 [Olaparib] (partner 8 µM)
The procedure, abridged: as §1

For the cell line NCI-H2087, the relative viability in the assay with Avagacestat + Foretinib (first compound 0.08 µM) is 1.11; with Avagacestat + Foretinib (first compound 0.253 µM), 1.39; with Avagacestat + Foretinib (first compound 0.8 µM), 1.09; with Avagacestat + Foretinib (first compound 2.53 µM) it was 1.09; with Avagacestat + Foretinib (first compound 8 µM) it was 1.23; in the assay with Avagacestat + Alpelisib (first compound 0.08 µM), 1.12. Also, the relative viability with Avagacestat + Alpelisib (first compound 0.253 µM) was found to be 1.26; in the assay with Avagacestat + Alpelisib (first compound 0.8 µM), 1.28; with Avagacestat + Alpelisib (first compound 2.53 µM) it was 1.18; with Avagacestat + Alpelisib (first compound 8 µM), 1.03; in the assay with Avagacestat + Pemetrexed (first compound 0.08 µM), 0.658; in the assay with Avagacestat + Pemetrexed (first compound 0.253 µM), 0.651. The relative viability with Avagacestat + Pemetrexed (first compound 0.8 µM) is 0.741; with Avagacestat + Pemetrexed (first compound 2.53 µM), 0.632; with Avagacestat + Pemetrexed (first compound 8 µM), 0.662; in the assay with Avagacestat + Olaparib (first compound 0.08 µM), 0.806; in the assay with Avagacestat + Olaparib (first compound 0.253 µM), 0.613; with Avagacestat + Olaparib (first compound 0.8 µM), 0.884. Moreover, the values for the relative viability with Avagacestat + Olaparib (first compound 2.53 µM) and with Avagacestat + Olaparib (first compound 8 µM) were 0.62 and 0.543, respectively.

These data come from the supplement of paper PMC10307832.
